Structures can show the parent of a compound that is named as a salt.
Assays:
[1] = Rotarod test (motor coordination, ataxia); type: in vivo; settings: mouse, ip, mice, i.p., Table 8, read-out: TI Rot. (ED50 rotarod failure / ED50 MES)
Method: All compounds were dissolved in 0.9% saline.
(§1) The MES test was performed together with tests for myorelaxant action (traction reflex) and motor coordination (rotarod). For the traction reflex test mice were placed with their forepaws on a horizontal rod and were required to place all 4 paws on the wire within 10 seconds. To test ataxia (motor coordination) mice were placed on rotarod (5 rpm) and were required to remain on the rod for 1 minute. […] These tests were followed by MES (100 Hz, 0.5 second shock duration, 50 mA shock intensity, 0.9 ms impulse duration, Ugo Basile) applied through corneal electrodes. The presence of tonic convulsions was scored (tonic extension of hind paws with minimum angle to the body of 90°). The aim was to obtain ED50 s for all parameters scored (anticonvulsive activity and motor side effects) with use of the Litchfield Wilcoxon test for quantal dose responses. Division of the ED50 for side effects (ataxia or myorelaxation) by the ED50 for antagonism of electroshock convulsions was used as a therapeutic index (TI).
(§2) Pearson product moment correlation analysis (Sigma Stat, Jandel Scientific) was used to compare in vitro potencies and in vivo anticonvulsant activity.

[2] = Traction reflex test (myorelaxant action); type: in vivo; settings: mouse, traction reflex versus mes, ip; mice, i.p.; Table 8; read-out: TI Tract. (ED50 traction reflex impairment / ED50 MES)
Method: (§3) NMR female mice (18-28 g) housed 5 per cage were used for the maximal electroshock (MES) and motor impairment tests. […] All compounds were dissolved in 0.9% saline.
as §1, with “(TI). […]” for “(TI).”

[3] = i.p.; Table 8
[4] = test system: MES-induced convulsions in mice; test: Anticonvulsive activity: maximal electroshock (MES) test; type: in vivo; settings: for ED50: Mus musculus, ip, 0.5 h; for MES ED50: i.p., Table 8, 30 min
Method: as §3, §1, §2

traction reflex in mice = test: Traction reflex test (myorelaxant action); type: in vivo; settings: i.p., Table 8
Method: as §3
as §1, with “(TI). […]” for “(TI).”

NMDA receptor [5] = test: [3H]-(+)-MK-801 receptor binding to rat cortical membranes; settings: read-out: [3H]MK-801 IC50, [3H]-(+)-MK-801 5 nM, Table 7
Method: Male Sprague-Dawley rats (200-250 g) were decapitated and their brains were removed rapidly. The cortex was dissected and homogenized in 20 volumes of ice-cold 0.32 M sucrose using a glass-Teflon homogenizer. The homogenate was centrifuged at 1000×g for 10 minutes. The pellet was discarded and the supernatant centrifuged at 20,000×g for 20 minutes. The resulting pellet was re-suspended in 20 volumes of distilled water and centrifuged for 20 minutes at 8000×g. Then the supernatant and the buffy coat were centrifuged three times (48,000×g for 20 minutes) in the presence of 50 mM Tris-HCl, pH 8.0. All centrifugation steps were carried out at 4° C. After resuspension in 5 volumes of 50 mM Tris-HCl, pH 8.0 the membrane suspension was frozen rapidly at -80° C. On the day of assay the membranes were thawed and washed four times by resuspension in 50 mM Tris-HCl, pH 8.0 and centrifugation at 48,000×g for 20 minutes. The final pellet was suspended in assay buffer. The amount of protein in the final membrane preparation was determined according to the method of Lowry with some modifications. The final protein concentration used for our studies was between 250-500 μg/ml.
Membranes were re-suspended and incubated in 50 mM Tris-HCl, pH 8.0. […] Incubations were terminated using a Millipore filter system. The samples were rinsed three times with 2.5 ml ice cold assay buffer over glass fiber filters obtained from Schleicher & Schuell under a constant vacuum. Filtration was performed as rapidly as possible. Following separation and rinse, the filters were placed into scintillation liquid (5 ml; Ultima Gold) and radioactivity retained on the filters was determined with a conventional liquid scintillation counter (Hewlett Packard, Liquid Scintillation Analyser).
IC50 s in patch clamp, excitotoxicity, and binding studies were calculated according to the four parameter alogistic equation using the Grafit computer program (Erithacus Software, England). Ki value for binding studies were then determined according to Cheng and Prusoff. Binding values presented are means ±SEM of 3-5 determinations (each performed in duplicate).

NMDA receptor [6] = settings: clinical / human use; cited from earlier work

| SMILES | selectivity ratio ([1]; rotarod versus mes) | selectivity ratio [2] | further results |
| --- | --- | --- | --- |
| CCC[C@@]1(C)C[C@H](C)C[C@@](C)(N)C1 (relative stereo) [Mrz 2/618] | 1.1 | 1.2 | – |
| C[C@@H]1CC(C)(C)C[C@@](C)(N)C1 (relative stereo) [Mrz 2/607] | 1.7 | 1.3 | – |
| CCNC1(C)CC(C)(C)CC(C)(C)C1 [Mrz 2/639, N-ethyl-1-amino-1,3,3,5,5-pentamethylcyclohexane] | 4.4 | 2.6 | Min Lethality [3]: 30 mg/kg |
| CC[C@H]1CC(C)(C)C[C@@](C)(N)C1 (relative stereo) [Mrz 2/632] | 3.4 | 2.7 | – |
| C[C@H]1CCC[C@@](C)(N)C1 (relative stereo) [Mrz 2/631] | – | – | Min Lethality [3]: > 30 mg/kg |
| C[C@H]1CC(C)(C)C[C@@](C)(N)C1 (relative stereo) [Mrz 2/643] | – | – | ED50 ([4]; i.p. 30 min before, Table 7): 16.6 mg/kg; TI Tract. (ED50 traction reflex impairment / ED50 MES) (traction reflex in mice): 1.3 |
| CC1(C)CC(CN)CC(C)(C)C1.Cl [Mrz 2/580, 3,3,5,5-tetramethylcyclohexylmethylamine hydrochloride] | 1.3 | 1.6 | Min Lethality [3]: 50 mg/kg |
| CC(C)(N)CC1CC(C)(C)CC(C)(C)C1 [Mrz 2/645] | – | – | TI Tract. (ED50 traction reflex impairment / ED50 MES) (traction reflex in mice): 0.6 |
| CC1(C)CC(C)(C)CC(C)(CCN)C1 [Mrz 2/662] | 1.2 | 1 | – |
| CC1(C)CC(CCN)CC(C)(C)C1 [Mrz 2/644] | 0.6 | 0.5 | – |
| CCC[C@H]1CC(C)(C)C[C@@](C)(N)C1 (relative stereo) [Mrz 2/634] | – | – | Min Lethality [3]: > 30 mg/kg; ED50 ([4]; Table 8): > 30 mg/kg; ED50 ([4]; i.p. 30 min before, Table 7): > 30 mg/kg |
| CCCC1(N)CC(C)(C)CC(C)(C)C1 [Mrz 2/601, 1-amino-1-propyl-3,3,5,5-tetramethylcyclohexane] | – | 1.5 | selectivity ratio ([1]; in vivo): 1.5; Min Lethality [3]: 50 mg/kg; MES ED50 [4]: 15.6 mg/kg i.p. |
| CC[C@@H]1CC(C)(C)C[C@@](C)(N)C1 (relative stereo) [Mrz 2/633] | 3 | 2.4 | – |
| CC[C@H]1CC(C)(C)C[C@](C)(N)C1 [MRZ 2/682, 1-amino-(1R,5S)trans-3-ethyl-1,5,5-trimethylcyclohexane] | – | – | TI Tract. (ED50 traction reflex impairment / ED50 MES) (traction reflex in mice): 2.7 |
| CC1(C)CC(N)CC(C)(C)C1 [Mrz 2/557] | 1.4 | 1 | – |
| CCC[C@@H]1CC(C)(C)C[C@@](C)(N)C1 (relative stereo) [Mrz 2/635] | 1.4 | 1.3 | – |
| CC[C@H]1CC(C)(C)C[C@@](C)(N)C1 [MRZ 2/683, 1-amino-(1S,5S)cis-3-ethyl-1,5,5-trimethylcyclohexane] | – | – | TI Tract. (ED50 traction reflex impairment / ED50 MES) (traction reflex in mice): 2.7 |
| C[C@@H]1C[C@H](C)C[C@](C)(N)C1 [MRZ 2/681, 1-amino-1(cis),3(cis),5-trimethylcyclohexane] | 5.3 | – | TI Tract. (ED50 traction reflex impairment / ED50 MES) (traction reflex in mice): 2.1 |
| CCCC1(C)CCCC(C)(N)C1 (centres unmarked) [Mrz 2/617] | – | – | TI Tract. (ED50 traction reflex impairment / ED50 MES) (traction reflex in mice): 1.1 |
| CNC1(C)CC(C)(C)CC(C)(C)C1.Cl [Mrz 2/640, N,1,3,3,5,5-hexamethylcyclohexanamine hydrochloride] | 3.3 | 2.3 | Min Lethality [3]: 108 mg/kg |

| SMILES | selectivity ratio ([1]; rotarod versus mes) | selectivity ratio [2] | further results |
| --- | --- | --- | --- |
| C[C@@H]1CCC[C@@](C)(N)C1 (relative stereo) [Mrz 2/625] | 1.2 | 0.5 | – |
| CCC1(C)CC(C)(C)CC(C)(N)C1 (centres unmarked) [Mrz 2/615, 1-amino-1,3,5,5-tetramethyl-3-ethylcyclohexane] | 3.2 | 2.5 | Min Lethality [3]: 50 mg/kg |
| CCCC1(CCC)CC(C)(C)CC(C)(N)C1 (centres unmarked) [Mrz 2/626] | – | – | TI Tract. (ED50 traction reflex impairment / ED50 MES) (traction reflex in mice): 1.1 |
| CC[C@H]1CCC[C@@](C)(N)C1 (relative stereo) [Mrz 2/630] | – | – | IC50 (NMDA receptor [5]): 443 µM; Min Lethality [3]: > 30 mg/kg |
| CCC[C@H]1CCC[C@@](C)(N)C1 (relative stereo) [Mrz 2/628] | 1.6 | 0.8 | – |
| CCC1(N)CC(C)(C)CC(C)(C)C1 [Mrz 2/600, 1-amino-1-ethyl-3,3,5,5-tetramethylcyclohexane] | 0.9 | 0.6 | IC50 (NMDA receptor [5]): 24 µM; Min Lethality [3]: 50 mg/kg |
| CC[C@@]1(C)C[C@H](C)C[C@@](C)(N)C1 (relative stereo) [Mrz 2/622] | 1.7 | 1.1 | IC50 (NMDA receptor [5]): 150 µM |
| NC12CC3CC(CC(C3)C1)C2 [Amantadine, reference compound] | – | – | side effects (NMDA receptor [6]): rarely produce side effects at the therapeutic doses; MES ED50 [4]: 184.0 mg/kg i.p. |
| CC[C@@H]1CCC[C@@](C)(N)C1 (relative stereo) [Mrz 2/629] | 0.9 | 0.9 | – |
| C[C@@H]1C[C@H](C)C[C@@](C)(N)C1 [MRZ 2/680, 1-amino-1(trans),3(trans),5-trimethylcyclohexane] | – | – | TI Tract. (ED50 traction reflex impairment / ED50 MES) (traction reflex in mice): 0.7 |
| CN(C)C1(C)CC(C)(C)CC(C)(C)C1 [Mrz 2/642] | – | 4.1 | selectivity ratio ([1]; in vivo): 5.3; MES ED50 [4]: 8.04 mg/kg i.p. |
| CCC1(C)CCCC(C)(N)C1 (centres unmarked) [Mrz 2/620] | 1.1 | – | TI Tract. (ED50 traction reflex impairment / ED50 MES) (traction reflex in mice): 1.6 |
| CCC[C@@H]1CCC[C@@](C)(N)C1 (relative stereo) [Mrz 2/627] | 1 | 0.8 | – |
| CCC[C@]1(C)C[C@@H](C)C[C@@](C)(N)C1 (relative stereo) [Mrz 2/619] | 1 | 1 | – |
| CCC1(CC)CC(C)(C)CC(C)(N)C1 (centres unmarked) [Mrz 2/623, 1-amino-1,5,5-trimethyl-3,3-diethylcyclohexane] | 1.8 | 1.4 | Min Lethality [3]: > 30 mg/kg |
| CC1(N)CCCCC1 [Mrz 2/641] | – | – | Min Lethality [3]: > 50 mg/kg |
| CC[C@]1(C)C[C@@H](C)C[C@@](C)(N)C1 (relative stereo) [Mrz 2/624] | 1 | 0.9 | – |
| C[C@]12N[C@H](Cc3ccccc31)c1ccccc12 [MK-801, (+)-5-methyl-10,11-dihydro-5H-dibenzocyclohepten-5,10-imine maleate, reference compound] | – | – | side effects (NMDA receptor [6]): some psychotropic side effects were apparent at therapeutic doses; MES ED50 [4]: 0.16 mg/kg i.p. |
| CCCC1(C)CC(C)(C)CC(C)(N)C1 (centres unmarked) [Mrz 2/614] | – | – | TI Tract. (ED50 traction reflex impairment / ED50 MES) (traction reflex in mice): 1.9 |
| CC12CC3CC(C)(C1)CC(N)(C3)C2 [Memantine, reference compound] | – | – | side effects (NMDA receptor [6]): rarely produce side effects at the therapeutic doses; TI Tract. (ED50 traction reflex impairment / ED50 MES) (traction reflex in mice): 2.9 |

From US6071966A, “1-amino-alkylcyclohexane NMDA receptor antagonists” (Merz + Co. GmbH & Co., priority 1998, dated 2000)
